From patent US11008339B2, “Substituted pyrazole compounds containing pyrimidine and preparation method and use thereof” (Shenyang Sinochem Agrochemicals R&D Co., Ltd., priority 2015, dated 2021)
Read-outs that look alike come from different tables or passages of the source.

Tests used:
[1] = test system: cucumber downy mildew; assay: Protective activity in vivo (whole plant spray) against cucumber downy mildew; conditions: for inhibition at 25 µg/mL: Cucumis sativus, read-out: protective activity (%) against cucumber downy mildew
Description: (§1) The method is as followed: The whole plant is used in this test. The compound is dissolved in a proper solvent to get mother solution. The proper solvent is selected from acetone, methanol, DMF and so on according to their dissolving capability to the sample. The volume rate of solvent and testing solution (v/v) is equal to or less than 5%. […] The testing solution is sprayed to the host plant by a special plant sprayer. The plant is inoculated with fungus after 24 hours. According to the infecting characteristic of fungus, the plant is stored in a humidity chamber and then transferred into greenhouse after infection is finished. And the other plants are placed in greenhouse directly.

[2] = test system: diamond back moth; assay: Bioactivity test against diamond back moth (airbrush spray, leaf disc); assay type: in vivo; conditions: for Insecticidal activity against diamond back moth (%): 600 mg/L, contrastive test (Table 133)
Description: (§2) Compounds were dissolved in mixed solvent (acetone:methanol=1:1), and diluted to required concentration with water containing 0.1% of tween 80.
(§3) Diamond back moth, armyworm, peach aphid and carmine spider mite were used as targets and the method of spraying by airbrush was used for determination of insecticidal biassays.
The method of spraying by airbrush: The cabbage leaves were made into plates of 2 cm diameter by use of punch. A test solution (0.5 ml) was sprayed by airbrush at the pressure of 0.7 kg/cm^2 to both sides of every plate. 10 Second instar larvae were put into the petri-dishes after the leaf disc air-dried and 3 replicates were set for each treatment. Then the insects were maintained in observation room (25° C., 60˜70% R.H.). Scores were conducted and mortalities were calculated after 72 h.

[3] = test system: cucumber gray mold; assay: Fungicidal activity in vitro (96-well, inhibition rate) against cucumber gray mold; assay type: cell-based; conditions: 24 hours
[4] = test system: Green peach aphids (Myzus Persicae Sulzer); assay: Bioactivity test against green peach aphid (airbrush foliar spray); assay type: in vivo; conditions: 100 mg/L, contrastive test (Table 134)
Description: as §2, §3
Method: Filter papers were put in culture dishes (Diameter=6 cm), and water was dripped on filter papers for preserving moisture. Green peach aphids (Myzus Persicae Sulzer) were maintained on cabbage. Leaves (Diameter=3 cm) of approximately 15-30 aphids were put in the culture dishes. Bioactivity tests were used the method of Airbrush Foliar Spray, pressure=10 psi (0.7 kg/cm2), spray volume=0.5 mL. The studies were conducted at […] 25±1 C in incubator cabinets with 60±5% RH. Survey the survival aphids after 48 h and calculate the death rates.

[5] = test system: rice blast; assay: microbe, parasite or virus in culture; assay type: cell-based; conditions: Pyricularia oryzae, 24 h, read-out: inhibition rate against rice blast
[6] = test system: wheat powdery mildew; assay: Protective activity in vivo (whole plant spray) against wheat powdery mildew; conditions: 100 mg/L, comparative test (Table 130); for inhibition at 100 µg/mL: Triticum aestivum
Description: as §1

[7] = test system: corn rust; assay: Protective activity in vivo (whole plant spray) against corn rust; conditions: comparative test (Table 131)
Description: as §1

[8] = test system: carmine spider mite; assay: Bioactivity test against carmine spider mite (airbrush spray); assay type: in vivo; conditions: contrastive test (Table 135)
Description: as §2, §3
The method: Broadbean shoots with two true leaves in pot were taken, the healthy adults of carmine spider mite were inoculated to the leaves. The adults were counted and then sprayed with airbrush at the pressure of 0.7 kg/cm^2 and at dose of 0.5 ml. 3 replicates were set for each treatment. And then they were maintained in standard observation room. Scores were conducted and mortalities were calculated after 72 hrs.

[9] = test system: cucumber anthracnose; assay: Protective activity in vivo (whole plant spray) against cucumber anthracnose; conditions: for inhibition at 100 µg/mL: Cucumis sativus, read-out: protective activity (%) against cucumber anthracnose; for control against cucumber anthracnose: 6.25 ppm, protective, in vivo
Description: as §1

[10] = 25 mg/L, comparative test (Table 129)
[11] = 100 mg/L, comparative test (Table 132)

CCc1ncnc(NCc2cnn(-c3ccccc3)c2C)c1Cl [CK1]
inhibition at 25 µg/mL [1, 10]: 20%
Insecticidal activity against diamond back moth (%) [2]: 43%
inhibition at 25 ppm [3]: 0%
Insecticidal activity against peach aphid (%) [4]: 0%
inhibition at 25 ppm [5]: 0%

CCc1ncnc(NCc2cnn(-c3ccccc3)c2C(F)(F)F)c1Cl [CK2]
inhibition at 25 µg/mL [1, 10]: 20%
inhibition at 100 µg/mL [6]: 50%
Insecticidal activity against diamond back moth (%) [2]: 20%
inhibition at 25 ppm [3]: 0%
inhibition at 25 ppm [5]: 0%

Cc1nc(C)c(C)c(N(C)Cc2cnn(-c3ccccc3)c2)n1 [CK3]
inhibition at 25 µg/mL [1, 10]: 0%
inhibition at 100 µg/mL [6]: 0%
Insecticidal activity against diamond back moth (%) [2]: 0%
control effect against corn rust (%) ([7]; 25 mg/L): 0%
control effect against corn rust (%) ([7]; 100 mg/L): 20%
inhibition at 25 ppm [3]: 0%
Insecticidal activity against peach aphid (%) [4]: 30%
inhibition at 25 ppm [5]: 0%
Insecticidal activity against carmine spider mite (%) ([8]; 600 mg/L): 56%
inhibition at 100 µg/mL [9, 11]: 0%

Cc1cc(N(C)Cc2cnn(-c3ccccc3)c2)nc(C(C)C)n1 [CK4]
inhibition at 25 µg/mL [1, 10]: 0%
inhibition at 100 µg/mL [6]: 0%
Insecticidal activity against diamond back moth (%) [2]: 0%
control effect against corn rust (%) ([7]; 25 mg/L): 0%
control effect against corn rust (%) ([7]; 100 mg/L): 0%
inhibition at 25 ppm [3]: 0%
Insecticidal activity against peach aphid (%) [4]: 0%
inhibition at 25 ppm [5]: 0%
Insecticidal activity against carmine spider mite (%) ([8]; 600 mg/L): 59%
inhibition at 100 µg/mL [9, 11]: 0%

Cc1cc(N(C)Cc2c(C)nn(-c3ccccc3)c2C)nc(C)n1 [CK5]
inhibition at 25 µg/mL [1, 10]: 0%
inhibition at 100 µg/mL [6]: 0%
Insecticidal activity against diamond back moth (%) [2]: 0%
control effect against corn rust (%) ([7]; 25 mg/L): 60%
control effect against corn rust (%) ([7]; 100 mg/L): 70%
inhibition at 25 ppm [3]: 0%
Insecticidal activity against peach aphid (%) [4]: 22%
inhibition at 25 ppm [5]: 0%
Insecticidal activity against carmine spider mite (%) ([8]; 600 mg/L): 58%
inhibition at 100 µg/mL [9, 11]: 0%

Cc1ncnc(NCCOc2ccn(-c3ccc(Cl)cc3)n2)c1Cl [Compound 31-19]
inhibition at 25 µg/mL [1]: 100%
inhibition at 100 µg/mL [9]: 90%

Cc1ncnc(NCCOc2ccn(-c3c(Cl)cccc3Cl)n2)c1Cl [Compound 31-23]
protective activity (%) against cucumber downy mildew [1, 10]: 100%

Cc1ncnc(NCCOc2ccn(-c3c(Cl)cc(Cl)cc3Cl)n2)c1Cl [Compound 31-30]
protective activity (%) against cucumber downy mildew [1, 10]: 100%
protective activity (%) against wheat powdery mildew [6]: 98%

CCc1ncnc(NCCOc2ccn(-c3c(Cl)cc(Cl)cc3Cl)n2)c1Cl [Compound 32-30]
protective activity (%) against cucumber downy mildew [1, 10]: 100%
protective activity (%) against wheat powdery mildew [6]: 100%

CC(COc1ccn(-c2ccc(Cl)cc2)n1)Nc1ncnc(Cl)c1Cl (stereo not drawn) [Compound 35-19]
protective activity (%) against cucumber downy mildew [1, 10]: 100%
protective activity (%) against wheat powdery mildew [6]: 70%

CCc1ncnc(NC(C)COc2ccn(-c3ccc(Cl)cc3)n2)c1Cl (stereo not drawn) [Compound 37-19]
protective activity (%) against wheat powdery mildew [6]: 95%
Insecticidal activity against diamond back moth (%) [2]: 100%
control against diamond back moth ([2]; 600 ppm, mortality after 72 h): 100%
control effect against corn rust (%) ([7]; 25 mg/L): 90%
control effect against corn rust (%) ([7]; 100 mg/L): 100%
Insecticidal activity against peach aphid (%) [4]: 84%
Insecticidal activity against carmine spider mite (%) ([8]; 100 mg/L): 100%
Insecticidal activity against carmine spider mite (%) ([8]; 600 mg/L): 100%

c1ccc(-n2ccc(OCCNc3ncnc4ccccc34)n2)cc1 [Compound 40-1]
protective activity (%) against cucumber downy mildew [1, 10]: 70%

Fc1ccc(-n2ccc(OCCNc3ncnc4ccccc34)n2)cc1 [Compound 40-4]
protective activity (%) against cucumber downy mildew [1, 10]: 100%

Clc1ccccc1-n1ccc(OCCNc2ncnc3ccccc23)n1 [Compound 40-17]
inhibition at 25 µg/mL [1]: 70%
melting point: 186.6 °C

Clc1cccc(-n2ccc(OCCNc3ncnc4ccccc34)n2)c1 [Compound 40-18]
protective activity (%) against cucumber downy mildew [1, 10]: 100%

Clc1ccc(-n2ccc(OCCNc3ncnc4ccccc34)n2)cc1 [Compound 40-19]
protective activity (%) against cucumber downy mildew [1, 10]: 96%
protective activity (%) against cucumber anthracnose [9, 11]: 100%

Clc1ccc(-n2ccc(OCCNc3ncnc4ccccc34)n2)c(Cl)c1 [Compound 40-21]
protective activity (%) against cucumber downy mildew [1, 10]: 100%

Clc1cc(Cl)c(-n2ccc(OCCNc3ncnc4ccccc34)n2)c(Cl)c1 [Compound 40-30]
protective activity (%) against cucumber downy mildew [1, 10]: 100%

Cc1ccc(-n2ccc(OCCNc3ncnc4ccccc34)n2)cc1 [Compound 40-57]
protective activity (%) against cucumber anthracnose [9, 11]: 98%
control against cucumber anthracnose [9]: 90%

Clc1csc2ncnc(NCCOc3ccn(-c4ccccc4)n3)c12 [Compound 42-1]
protective activity (%) against cucumber downy mildew [1, 10]: 100%
protective activity (%) against cucumber anthracnose [9, 11]: 95%
control against cucumber anthracnose [9]: 90%

Clc1ccccc1-n1ccc(OCCNc2ncnc3scc(Cl)c23)n1 [Compound 42-17]
protective activity (%) against cucumber downy mildew [1, 10]: 100%

Clc1cccc(-n2ccc(OCCNc3ncnc4scc(Cl)c34)n2)c1 [Compound 42-18]
protective activity (%) against cucumber downy mildew [1, 10]: 100%

Clc1ccc(-n2ccc(OCCNc3ncnc4scc(Cl)c34)n2)c(Cl)c1 [Compound 42-21]
protective activity (%) against cucumber downy mildew [1, 10]: 100%

FC(F)(F)c1ccc(-n2ccc(OCCNc3ncnc4scc(Cl)c34)n2)cc1 [Compound 42-69]
protective activity (%) against cucumber downy mildew [1, 10]: 80%
protective activity (%) against wheat powdery mildew [6]: 100%
control effect against corn rust (%) ([7]; 25 mg/L): 85%
control effect against corn rust (%) ([7]; 100 mg/L): 90%
protective activity (%) against cucumber anthracnose [9, 11]: 95%

CC(COc1ccn(-c2ccc(Cl)cc2)n1)Nc1ncnc2scc(Cl)c12 (stereo not drawn) [Compound 44-19]
inhibition at 25 µg/mL [1, 10]: 100%
inhibition at 100 µg/mL [6]: 100%
inhibition at 25 ppm [3]: > 80%
inhibition at 2.8 ppm [5]: > 80%
inhibition at 8.3 ppm [5]: > 80%
inhibition at 25 ppm [5]: > 80%
Insecticidal activity against carmine spider mite (%) ([8]; 100 mg/L): 100%
Insecticidal activity against carmine spider mite (%) ([8]; 600 mg/L): 100%

Cc1c(Cl)ncnc1NCCCOc1ccn(-c2ccc(C(F)(F)F)cc2)n1 [Compound 122-69]
protective activity (%) against wheat powdery mildew [6]: 100%
protective activity (%) against cucumber anthracnose [9, 11]: 85%

COc1c(Cl)ncnc1NCCCOc1ccn(-c2ccc(C(F)(F)F)cc2)n1 [Compound 123-69]
protective activity (%) against wheat powdery mildew [6]: 100%
protective activity (%) against cucumber anthracnose [9, 11]: 90%

CCc1ncnc(NCCCOc2ccn(-c3ccc(C(F)(F)F)cc3)n2)c1Cl [Compound 125-69]
protective activity (%) against wheat powdery mildew [6]: 100%

FC(F)c1ncnc(NCCCOc2ccn(-c3ccc(C(F)(F)F)cc3)n2)c1Cl [Compound 126-69]
protective activity (%) against cucumber downy mildew [1, 10]: 70%
protective activity (%) against wheat powdery mildew [6]: 100%
protective activity (%) against cucumber anthracnose [9, 11]: 95%

FC(F)(F)c1ccc(-n2ccc(OCCCNc3ncnc4ccccc34)n2)cc1 [Compound 127-69]
protective activity (%) against cucumber downy mildew [1, 10]: 70%
protective activity (%) against wheat powdery mildew [6]: 100%
protective activity (%) against cucumber anthracnose [9, 11]: 92%

FC(F)(F)c1ccc(-n2ccc(OCCCNc3ncnc4scc(Cl)c34)n2)cc1 [Compound 128-69]
protective activity (%) against wheat powdery mildew [6]: 100%
